# Measured values: patent publication US10245351B2, “Malleable hydrogel hybrids made of self-assembled peptides and biocompatible polymers and uses thereof” (Technology Innovation Momentum Fund (Israel) Limited …, priority 2010, dated 2019)
# Tested on: CHO (Chinese Hamster Ovaries) cells
# Experiment: Cells viability test (MTT), cells on top of hydrogel
# Assay type: cell-based
# Protocol: To verify the ability of the hybrid hydrogels described herein to be used in biological applications, their biocompatibility was determined using an in vitro cell culture experiment. Three types of cells were cultivated on top of the hybrid hydrogels: CHO (Chinese Hamster Ovaries), fibroblasts and chondrocytes.
# CHO, fibroblasts and chondrocytes cells were grown in Dulbecco's Modified
# Eagle Medium (DMEM) supplemented with 10% fetal calf serum, 100 U/ml penicillin, 100 U/ml streptomycin, and 2 mmol/liter L-glutamine (all from Beit Haemeck, Israel). Cells were maintained at 37° C. in a humidified atmosphere containing 5% CO2. Subconfluent cultures were harvested by trypsinization, counted, and diluted in specific cells' media to form a cell concentration of 10^6 cells/ml. The gels swelled overnight with 0.1 ml DMEM. The next day, DMEM was removed and […] of the CHO cells (10^5 cells) were placed on top of the hydrogel. After 1, 3 and 7 days of incubation at 37° C. the viability of the cells was determined using an MTT assay.
# The cell viability was analyzed 1, 3 and 7 days post seeding. Cells seeded as monolayers with PBS were used as control. Cell viability was analyzed using an MTT assay. […]
substance,measurement,value
hyaluronic acid [HA],"viability, in words",high viability
